This note sets out measurements from patent US6440991B1, “Ethers of 7-desmethlrapamycin” (Wyeth, priority 2000, dated 2002).

In brackets after ≈: the same amount, converted by molar mass.

Holding throughout (format): cell-based
One assay concerns Candida pseudotropicalis. Nature of the assay: Antifungal activity, microtiter broth dilution MIC. To be noted: Candida pseudotropicalis strain ATCC 28838; RPMI 1640, 35° C., 24-48 hours. The protocol:
(§1) The antifungal activity for the ethers of 7-desmethylrapamycin of this invention was confirmed in a standard pharmacological test procedure which measured the ability of the compound being evaluated to inhibit fungal growth. 42-O-(2-Hydroxy)ethyl 7-desmethylrapamycin […] (Compound I) was evaluated as a representative compound of this invention. The procedure used and results obtained are briefly described below. A 96 U-bottom microtiter plate was filled (50 μl/well) with RPMI 1640. The compounds to be evaluated were placed in appropriate wells, and serial diluted in successive wells to provide 11 dilutions. The concentrations ranged from 64 through 0.06 μug/ml. An adjusted inoculum of fungi (50 μl) was added to each well and the plates were incubated at 35° C. for 24-48 hours. […] Nystatin and amphotericin B were used for the purpose of comparison.

The test system of the next assay is Aspergillus fumigatus. Nature of the assay: Antifungal activity, microtiter broth dilution MIC. The following applies: Aspergillus fumigatus strain ATCC 26933; RPMI 1640, 35° C., 24-48 hours. The protocol:
as §1

The test system of the next assay is Candida parapsilosis. Put plainly: Antifungal activity, microtiter broth dilution MIC. To be noted: RPMI 1640, 35° C., 24-48 hours. The protocol:
as §1

A further assay has as its system Candida rugosa. Nature of the assay: Antifungal activity, microtiter broth dilution MIC. The following applies: Candida rugosa strain 94-10; RPMI 1640, 35° C., 24-48 hours. The protocol:
as §1

The next assay deals with Candida albicans. Put plainly: Antifungal activity, microtiter broth dilution MIC. To be noted: RPMI 1640, 35° C., 24-48 hours. The protocol: as §1
For another assay, the system named is Aspergillus niger. Put plainly: Antifungal activity, microtiter broth dilution MIC. The following applies: RPMI 1640, 35° C., 24-48 hours. The protocol:
as §1

The test system of another assay is Candida lusitaniae. Put plainly: Antifungal activity, microtiter broth dilution MIC. To be noted: Candida lusitaniae strain 94-3; RPMI 1640, 35° C., 24-48 hours. As for the experimental part:
as §1

The subject of another assay is Candida krussii. Nature of the assay: Antifungal activity, microtiter broth dilution MIC. To be noted: Candida krussii strain 94-2; RPMI 1640, 35° C., 24-48 hours. The protocol: as §1
The subject of a further assay is Candida tropicalis. Nature of the assay: Antifungal activity, microtiter broth dilution MIC. To be noted: RPMI 1640, 35° C., 24-48 hours. As for the experimental part: as §1
For assay [1], the system named is U87MG human glioblastoma cells. Put plainly: Inhibition of U87MG human glioblastoma cell growth (3H-thymidine incorporation). To be noted: 48 hours incubation with compound. As for the experimental part:
The antineoplastic activity of the compounds of this invention were confirmed in a standard pharmacological test procedure which measures the inhibition of U87MG human glioblastoma cell growth (as a function of ^3H-thymidine incorporation), using 42-O-(2-hydroxy)ethyl 7-desmethylrapamycin (Compound I) as a representative compound of this invention. The following briefly describes the procedure used and results obtained. U87MG human glioblastoma cells (ATCC # HTB-14; available from the American Type Culture Collection; 10801 University Boulevard; Manassas, Va. 20110;), were grown in the following media.
Growth Medium: BRL Minimum Essential Medium with Earle Salts (500 mL)
+5 mL BRL MEM Non-Essential Amino Acids (10 mM)
+5 mL BRL Penicillin-Streptomycin (1 0000u/mL,1 0000 μg/mL)
+5 mL BRL Na Pyruvate Solution (100 mM)
+5 mL BRL L-Glutamine 200 mM
+50 mL BRL Fetal Bovine Serum (Qualified)
1. Cells were trypsinized and plated at a concentration of 10^4 cells/well in a final volume of 200 μL growth medium in 96-well flat bottom plates and allowed to adhere for 24 hours at 37° C.
2. The media was removed by aspiration with care to not disturb the cell monolayer. 200 μL of fresh growth media was added per well, allowing enough wells for samples to be run in triplicate. […]
4. […] Mats were counted in a Wallac Betaplate counter.

Where [2] appears, read: Candida parapsilosis strain 94-8.
Setting [3] is: Candida parapsilosis strain 94-9.
[4] abbreviates: Candida parapsilosis strain ATCC 90018.
Setting [5] is: Candida albicans strain ATCC 90028.
Setting [6] is: Candida tropicalis strain 94-13.
Setting [7] is: Candida tropicalis strain 94-14.

Take `C[C@@H]1[C@H](O)[C@@H](C)/C=C/C=C/C=C/C=C/C=C/C=C/C=C/[C@H](O[C@@H]2O[C@H](C)[C@@H](O)[C@H](N)[C@@H]2O)C[C@@H]2O[C@](O)(C[C@@H](O)C[C@@H](O)[C@H](O)CC[C@@H](O)C[C@@H](O)CC(=O)O[C@H]1C)C[C@H](O)[C@H]2C(=O)O` [Amphotericin B, amphotericin B]: the “ANTIFUNGAL ACTIVITY (MIC)” value in the assay with Candida pseudotropicalis is “≦0.06 μg/mL”; in the assay on Aspergillus fumigatus, 0.25 µg/mL; in the assay with Candida parapsilosis (setting [2]), “≦0.06 μg/mL”; in the assay with Candida parapsilosis (setting [3]), 0.12 µg/mL; in the assay with Candida parapsilosis (setting [4]), “≦0.06 μg/mL”; in the assay with Candida rugosa it was 0.25 µg/mL. For the same compound, the “ANTIFUNGAL ACTIVITY (MIC)” value was “≦0.06 μg/mL” in the assay on Candida albicans (Candida albicans strain 1063); 0.12 µg/mL in the assay with Candida albicans (Candida albicans strain 1117); 0.12 µg/mL with Candida albicans (setting [5]); 0.50 µg/mL in the assay with Aspergillus niger (Aspergillus niger strain S399); 0.25 µg/mL in the assay with Aspergillus niger (Aspergillus niger strain S430); “≦0.06 μg/mL” in the assay with Candida lusitaniae. The “ANTIFUNGAL ACTIVITY (MIC)” value in the assay with Candida krussii is 0.12 µg/mL; with Candida tropicalis (setting [6]) it was “≦0.06 μg/mL”; in the assay on Candida tropicalis (setting [7]) it was “≦0.06 μg/mL”.

`CO[C@@H]1C[C@H](C[C@@H](C)[C@@H]2CC(=O)[C@H](C)/C=C(\C)[C@@H](O)[C@@H](OC)C(=O)[C@H](C)C[C@H](C)/C=C/C=C/C=C(\C)[C@@H](O)C[C@@H]3CC[C@@H](C)[C@@](O)(O3)C(=O)C(=O)N3CCCC[C@H]3C(=O)O2)CC[C@H]1OCCO` [Compound I, 42-O-(2-Hydroxy)ethyl 7-desmethyirapamycin]: the “ANTIFUNGAL ACTIVITY (MIC)” value came out at 2 µg/mL with Candida pseudotropicalis; 64 µg/mL in the assay on Aspergillus fumigatus; 2 µg/mL with Candida parapsilosis (setting [2]); 2 µg/mL with Candida parapsilosis (setting [3]); 2 µg/mL in the assay with Candida parapsilosis (setting [4]); 1 µg/mL in the assay on Candida rugosa. Besides, the “ANTIFUNGAL ACTIVITY (MIC)” value in the assay on Candida albicans (Candida albicans strain 1063) is 1 µg/mL; in the assay on Candida albicans (Candida albicans strain 1117), 2 µg/mL; in the assay on Candida albicans (setting [5]) it was 2 µg/mL; in the assay with Aspergillus niger (Aspergillus niger strain S399) it was 64 µg/mL; in the assay on Aspergillus niger (Aspergillus niger strain S430), 64 µg/mL; in the assay on Candida lusitaniae, 1 µg/mL. For the same compound, the “ANTIFUNGAL ACTIVITY (MIC)” value in the assay with Candida krussii, in the assay on Candida tropicalis (setting [6]) and in the assay with Candida tropicalis (setting [7]) was 0.5 µg/mL each time. The IC50 in [1] amounted to 0.0035 µg/mL (≈ 3.71 nM).

As for `C[C@@H]1[C@H](O)[C@@H](C)/C=C/C=C/CC/C=C/C=C/C=C/C=C/C(O[C@H]2O[C@H](C)[C@@H](O)[C@H](N)[C@@H]2O)CC2O[C@](O)(CC(O)C(O)CCC(O)CC(O)CC(O)CC(=O)O[C@H]1C)CC(O)C2C(=O)O` (stereo partly shown) [Nystatin], the “ANTIFUNGAL ACTIVITY (MIC)” value with Candida pseudotropicalis was found to be 1 µg/mL; in the assay with Aspergillus fumigatus, 2 µg/mL; in the assay with Candida parapsilosis (setting [2]) it was 2 µg/mL; with Candida parapsilosis (setting [3]), 1 µg/mL; with Candida parapsilosis (setting [4]), 2 µg/mL; with Candida rugosa, 1 µg/mL. Further, the “ANTIFUNGAL ACTIVITY (MIC)” value in the assay with Candida albicans (Candida albicans strain 1063) came to 1 µg/mL; in the assay with Candida albicans (Candida albicans strain 1117), 1 µg/mL; in the assay with Candida albicans (setting [5]), 1 µg/mL; in the assay with Aspergillus niger (Aspergillus niger strain S399), 2 µg/mL; in the assay with Aspergillus niger (Aspergillus niger strain S430) it was 1 µg/mL; in the assay with Candida lusitaniae, 1 µg/mL. Further, the “ANTIFUNGAL ACTIVITY (MIC)” value with Candida krussii, in the assay on Candida tropicalis (setting [6]) and in the assay on Candida tropicalis (setting [7]) was 1 µg/mL each time.
